Reference: patent publication US4387100A, “Substituted phenoxy-aminopropanol derivatives” (Hoffmann-La Roche Inc., priority 1980, dated 1983)
Read-outs that look alike come from different tables or passages of the source.

Key:
β2-adrenoceptors = target: T1, β2-adrenoceptors (Rattus norvegicus, UniProt P10608); experiment: 50% reduction in isoprenaline-induced depressor responses (β2-blocking activity) in rats, i.v.; format: in vivo; conditions: iv, dosage for 50% reduction in isoprenaline-induced depressor responses
T1 construct: this activity is measured in rats by determining the dosage; from tissue; host or cells: living rat, i.v. dosing; read-out blood pressure (isoprenaline-induced depressor response)

β1-adrenoceptors = target: T2, β1-adrenoceptors (Rattus norvegicus, UniProt P18090); experiment: 50% reduction in isoprenaline-induced tachycardia (β1-blocking activity) in rats, i.v.; format: in vivo; conditions: iv, read-out: ED50 (HR)
T2 construct: this activity is measured in rats by determining the dosage; from tissue; host or cells: living rat, i.v. dosing; read-out heart rate (isoprenaline-induced tachycardia)

[1] = rats, i.v., dosage for 50% reduction in isoprenaline-induced tachycardia

T2 sequence (P18090 whole entry): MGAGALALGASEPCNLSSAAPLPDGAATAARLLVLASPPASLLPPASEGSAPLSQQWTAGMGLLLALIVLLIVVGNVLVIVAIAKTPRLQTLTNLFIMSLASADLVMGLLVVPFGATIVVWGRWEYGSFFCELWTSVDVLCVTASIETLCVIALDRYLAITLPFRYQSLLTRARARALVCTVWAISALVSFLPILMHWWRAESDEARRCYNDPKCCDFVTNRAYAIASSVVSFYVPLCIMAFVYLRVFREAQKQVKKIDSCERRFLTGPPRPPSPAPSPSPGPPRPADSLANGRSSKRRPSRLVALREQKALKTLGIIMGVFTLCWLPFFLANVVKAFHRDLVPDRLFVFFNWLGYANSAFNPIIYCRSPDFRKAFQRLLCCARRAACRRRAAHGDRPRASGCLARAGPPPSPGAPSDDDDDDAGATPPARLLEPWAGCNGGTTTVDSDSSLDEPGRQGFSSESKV
T1 sequence (P10608 whole entry): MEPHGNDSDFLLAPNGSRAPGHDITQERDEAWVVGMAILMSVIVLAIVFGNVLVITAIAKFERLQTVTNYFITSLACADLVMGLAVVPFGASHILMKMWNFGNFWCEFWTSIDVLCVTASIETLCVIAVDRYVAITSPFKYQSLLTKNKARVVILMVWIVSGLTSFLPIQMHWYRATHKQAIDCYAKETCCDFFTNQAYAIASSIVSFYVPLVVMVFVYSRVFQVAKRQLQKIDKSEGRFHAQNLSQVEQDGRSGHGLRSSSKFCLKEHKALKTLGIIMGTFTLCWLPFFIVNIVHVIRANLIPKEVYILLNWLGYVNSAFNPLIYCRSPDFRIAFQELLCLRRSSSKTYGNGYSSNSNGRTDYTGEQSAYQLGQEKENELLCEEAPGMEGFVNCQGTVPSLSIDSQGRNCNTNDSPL

`CC(C)NCC(O)COc1ccc(OCn2nccn2)cc1` (stereo not drawn) [C] gave an ED50 (β2-adrenoceptors) greater than 2 mg/kg and an ED50 (β1-adrenoceptors; [1]) of 0.011 mg/kg.
Work on `CC(C)NCC(O)COc1ccc(CC(N)=O)cc1` (stereo not drawn) [Atenolol, atenolol, reference compound] yielded an ED50 (β1-adrenoceptors) of 0.091 mg/kg.
`CC(C)NCC(O)COc1ccc(OCCn2cccn2)cc1` (stereo not drawn) [A] showed an ED50 (β2-adrenoceptors) of 6.5 mg/kg and an ED50 (β1-adrenoceptors; [1]) of 0.05 mg/kg.
Work on `CC(C)NCC(O)COc1ccc(OCn2cc(Cl)cn2)cc1` (stereo not drawn) [B] yielded an ED50 (β2-adrenoceptors) of 2.43 mg/kg and an ED50 (β1-adrenoceptors; [1]) of 0.004 mg/kg.
`CC(C)NCC(O)COc1ccc(OCCn2nccn2)cc1` (stereo not drawn) [D] showed an ED50 (β2-adrenoceptors) greater than 2 mg/kg and an ED50 (β1-adrenoceptors; [1]) of 0.014 mg/kg.
